According to PubChem BioAssay AID1919015 (Molecular Pharmacology Branch, DTP, NCI, 2023):
Where “and” joins values, the source holds several entries; their conditions need not be identical. Equal values may be shown once.

Test system: OVCAR-5 complex spheroids with HUVEC/MSC, viability, % test/control
Assay: Anticancer human tumor OVCAR-5 cell line growth inhibition [AhR];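 note: spheroids exposed to compounds for 7 days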;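 for viability, T/C: 100% = DMSO vehicle control wells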
Conditions: for viability, T/C: stronger effect = lower value
In short: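 Agents were dosed in half-log steps down from roughly clinical Cmax, or from 10 microM where Cmax was unknown, alone and with AhR antagonists. Read-out: percent test/control growth of tumor spheroids containing HUVEC and MSC stromal cells.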

[1] = curve of first compound, second compound 0.1 µM
[2] = curve of first compound, second compound 0.316 µM
[3] = curve of first compound, second compound 1 µM
[4] = curve of first compound, second compound 3.16 µM
[5] = curve of first compound, second compound 10 µM
[6] = second compound 0.1 µM, first compound 0.0316 µM
[7] = second compound 0.1 µM, first compound 0.1 µM
[8] = second compound 0.1 µM, first compound 0.316 µM
[9] = second compound 0.1 µM, first compound 1 µM
[10] = second compound 0.1 µM, first compound 3.16 µM
[11] = second compound 0.1 µM, first compound 10 µM
[12] = second compound 0.316 µM, first compound 0.0316 µM
[13] = second compound 0.316 µM, first compound 0.1 µM
[14] = second compound 0.316 µM, first compound 0.316 µM
[15] = second compound 0.316 µM, first compound 1 µM
[16] = second compound 0.316 µM, first compound 3.16 µM
[17] = second compound 0.316 µM, first compound 10 µM
[18] = second compound 1 µM, first compound 0.0316 µM
[19] = second compound 1 µM, first compound 0.1 µM
[20] = second compound 1 µM, first compound 0.316 µM
[21] = second compound 1 µM, first compound 1 µM
[22] = second compound 1 µM, first compound 3.16 µM
[23] = second compound 1 µM, first compound 10 µM
[24] = second compound 3.16 µM, first compound 0.0316 µM
[25] = second compound 3.16 µM, first compound 0.1 µM
[26] = second compound 3.16 µM, first compound 0.316 µM
[27] = second compound 3.16 µM, first compound 1 µM
[28] = second compound 3.16 µM, first compound 3.16 µM
[29] = second compound 3.16 µM, first compound 10 µM
[30] = second compound 10 µM, first compound 0.0316 µM
[31] = second compound 10 µM, first compound 0.1 µM
[32] = second compound 10 µM, first compound 0.316 µM
[33] = second compound 10 µM, first compound 1 µM
[34] = second compound 10 µM, first compound 3.16 µM
[35] = second compound 10 µM, first compound 10 µM

Structure (SMILES): Nc1ncn(C2CC(O)C(CO)S2)c(=O)n1 (configuration not stated) + Cc1cncc(-c2nc(NCCc3c[nH]c4ccccc34)c3ncn(C(C)C)c3n2)c1
- IC50 [1]: > 0.3 µM
- IC50 [2]: > 0.3 µM
- IC50 [3]: > 0.3 µM
- IC50 [4]: > 0.3 µM
- IC50 [5]: < 0.000949 µM
- viability, T/C (second compound 0.1 µM, first compound 0.000949 µM): 99.8%
- viability, T/C (second compound 0.1 µM, first compound 0.003 µM): 101%
- viability, T/C (second compound 0.1 µM, first compound 0.00949 µM): 102%
- viability, T/C (second compound 0.1 µM, first compound 0.03 µM): 98.4%
- viability, T/C (second compound 0.1 µM, first compound 0.0949 µM): 85.9%
- viability, T/C (second compound 0.1 µM, first compound 0.3 µM): 80.6%
- viability, T/C (second compound 0.316 µM, first compound 0.000949 µM): 99.1%
- viability, T/C (second compound 0.316 µM, first compound 0.003 µM): 101%
- viability, T/C (second compound 0.316 µM, first compound 0.00949 µM): 96.8%
- viability, T/C (second compound 0.316 µM, first compound 0.03 µM): 93.1%
- viability, T/C (second compound 0.316 µM, first compound 0.0949 µM): 85.5%
- viability, T/C (second compound 0.316 µM, first compound 0.3 µM): 78.2%
- viability, T/C (second compound 1 µM, first compound 0.000949 µM): 87.8%
- viability, T/C (second compound 1 µM, first compound 0.003 µM): 88.7%
- viability, T/C (second compound 1 µM, first compound 0.00949 µM): 89.7%
- viability, T/C (second compound 1 µM, first compound 0.03 µM): 79.7%
- viability, T/C (second compound 1 µM, first compound 0.0949 µM): 75.4%
- viability, T/C (second compound 1 µM, first compound 0.3 µM): 70.9%
- viability, T/C (second compound 3.16 µM, first compound 0.000949 µM): 75.4%
- viability, T/C (second compound 3.16 µM, first compound 0.003 µM): 76.3%
- viability, T/C (second compound 3.16 µM, first compound 0.00949 µM): 75.5%
- viability, T/C (second compound 3.16 µM, first compound 0.03 µM): 79.6%
- viability, T/C (second compound 3.16 µM, first compound 0.0949 µM): 63.2%
- viability, T/C (second compound 3.16 µM, first compound 0.3 µM): 62.7%
- viability, T/C (second compound 10 µM, first compound 0.000949 µM): 18.3%
- viability, T/C (second compound 10 µM, first compound 0.003 µM): 17.9%
- viability, T/C (second compound 10 µM, first compound 0.00949 µM): 18%
- viability, T/C (second compound 10 µM, first compound 0.03 µM): 15.2%
- viability, T/C (second compound 10 µM, first compound 0.0949 µM): 14.3%
- viability, T/C (second compound 10 µM, first compound 0.3 µM): 15.1%

Structure (SMILES): O=C(c1cc(Cc2n[nH]c(=O)c3ccccc23)ccc1F)N1CCN(C(=O)C2CC2)CC1 + CC(CO)NC(=O)c1cc(-c2ccc(Cl)cc2)nn(-c2cnn(C)c2)c1=O
- IC50 [1]: > 10 µM
- IC50 [2]: > 10 µM
- IC50 [3]: > 10 µM
- IC50 [4]: > 10 µM
- IC50 [5]: > 10 µM
- viability, T/C [6]: 112%
- viability, T/C [7]: 106%
- viability, T/C [8]: 107%
- viability, T/C [9]: 102%
- viability, T/C [10]: 102%
- viability, T/C [11]: 98.3%
- viability, T/C [12]: 111%
- viability, T/C [13]: 112%
- viability, T/C [14]: 108%
- viability, T/C [15]: 107%
- viability, T/C [16]: 106%
- viability, T/C [17]: 102%
- viability, T/C [18]: 109%
- viability, T/C [19]: 114%
- viability, T/C [20]: 115%
- viability, T/C [21]: 112%
- viability, T/C [22]: 113%
- viability, T/C [23]: 107%
- viability, T/C [24]: 104%
- viability, T/C [25]: 104%
- viability, T/C [26]: 102%
- viability, T/C [27]: 101%
- viability, T/C [28]: 97.5%
- viability, T/C [29]: 94.8%
- viability, T/C [30]: 99.4%
- viability, T/C [31]: 101%
- viability, T/C [32]: 96.6%
- viability, T/C [33]: 99.4%
- viability, T/C [34]: 94.4%
- viability, T/C [35]: 90.7%

Structure (SMILES): COc1cc(C2c3cc4c(cc3C(OC3OC5COC(C)OC5C(O)C3O)C3COC(=O)C23)OCO4)cc(OC)c1O (configuration not stated) + Cc1ccccc1N=Nc1ccc(NC(=O)c2ccnn2C)c(C)c1
- IC50 [1]: 2.09 µM
- IC50 [2]: 2.25 µM
- IC50 [3]: 2.5 µM
- IC50 [4]: 2.75 µM
- IC50 [5]: 2.91 µM
- viability, T/C [6]: 105%
- viability, T/C [7]: 104%
- viability, T/C [8]: 98.8%
- viability, T/C [9]: 68.3%
- viability, T/C [10]: 40.4%
- viability, T/C [11]: 32.1%
- viability, T/C [12]: 114%
- viability, T/C [13]: 114%
- viability, T/C [14]: 103%
- viability, T/C [15]: 68.8%
- viability, T/C [16]: 43.4%
- viability, T/C [17]: 32.9%
- viability, T/C [18]: 115%
- viability, T/C [19]: 116%
- viability, T/C [20]: 105%
- viability, T/C [21]: 73.5%
- viability, T/C [22]: 44.1%
- viability, T/C [23]: 36.1%
- viability, T/C [24]: 112%
- viability, T/C [25]: 121%
- viability, T/C [26]: 110%
- viability, T/C [27]: 77.1%
- viability, T/C [28]: 47.9%
- viability, T/C [29]: 38.2%
- viability, T/C [30]: 105%
- viability, T/C [31]: 107%
- viability, T/C [32]: 98%
- viability, T/C [33]: 68.8%
- viability, T/C [34]: 51.8%
- viability, T/C [35]: 38.9%

Structure (SMILES): CCc1c2c(nc3ccc(O)cc13)-c1cc3c(c(=O)n1C2)COC(=O)[C@]3(O)CC
- viability, T/C (compound 0.000949 µM): 90.5% and 88.5% and 79.2%
- viability, T/C (compound 0.003 µM): 69% and 69.4% and 60.1%
- viability, T/C (compound 0.00949 µM): 46% and 36.1% and 40.2%
- viability, T/C (compound 0.03 µM): 45.3% and 36.5% and 41.5%
- viability, T/C (compound 0.0949 µM): 28.9% and 21.7% and 21.8%
- viability, T/C (compound 0.3 µM): 12.1% and 8% and 9.04%
- IC50 (curve of compound): 0.013 µM and 0.00738 µM and 0.00751 µM
